Measured values reported in paper PMC12394750, “2H-1,4-Benzoxazin-3(4H)-one linked 1,2,3-triazole derivatives and their study on inducing DNA damage in tumor cells” (Frontiers in Pharmacology, 2025).

Key:
[1] = system: Huh-7 cells; test: Western blot protein expression; format: cell-based, human; details: Huh-7, 72 h (Figure 6 legend 24 h), 20 or 30 μM
Protocol: To further examine the regulatory effects of 2H-1,4-benzoxazin-3(4H)-one linked 1,2,3-triazole derivatives on protein expression, Huh-7 cells were treated with compounds c5, c14, c16, and c18 for 72 h, after which whole-cell protein lysates were collected for analysis.
FIGURE 6 Compounds c5, c14, c16, and c18 affected DNA damage and autophagy. (A–D) Huh-7 cells were treated with different concentrations of compounds c5, c14, c16, and c18 (20 or 30 μM) for 24 h. Protein expressions were analyzed by Western blot. Top: Western blot; bottom: quantitative measurements relative to ACTIN. Data were presented as means ± SEM; *P < 0.05.
Antibodies used in Western blot were as follows: caspase3, caspase9, LC3, γ-H2AX, PARP, cyclin D, cyclin E, β-catenin (all from Cell Signaling Technology, United States), and β-actin (Sigma, United States). Cells were treated with compounds (0 μM, 5 μM, 10 μM, 20 μM, or 30 μM) for 72 h, and the whole-cell proteins were collected using RIPA buffer containing protease/phosphatase inhibitor cocktail. The protein expressions were measured and analyzed using Western blot. Values were expressed as mean ± SEM. Statistical significance was assessed using a two-tailed Student’s t-test. P < 0.05 was considered statistically significant. Data were visualized using GraphPad Prism.

[2] = system: Huh-7 cells; test: Calcein AM/PI live/dead viability assay; format: cell-based, human; details: Huh-7, 10, 20 or 30 μM, 24 h
Protocol: To evaluate the anti-proliferative effects of 2H-1,4-benzoxazin-3(4H)-one linked 1,2,3-triazole derivatives, live/dead cell staining was performed using Calcein AM and PI on Huh-7 cells. The cells were treated with different concentrations (10 μM, 20 μM, or 30 μM) of compounds c5, c14, c16, and c18 for 24 h. Living cells were stained green by Calcein AM, while dead cells were stained red by PI.
FIGURE 4 Compounds c5, c14, c16, and c18 increased dead cells and decreased living cells. (A–D) Huh-7 cells were treated with different concentrations of compounds c5, c14, c16, and c18 (10 μM, 20 μM, or 30 μM) for 24 h. Living and dead cells were stained with Calcein AM and PI, respectively, and then observed by confocal microscopy. Data were presented as means ± SEM; *P < 0.05.
A live and dead viability assay was performed using the Calcein/PI Live/Dead Viability Assay Kit. Cells were plated at a density of 2 × 10^3 cells per well in a 96-well plate to adhere overnight. Then, compounds were added with different concentrations for 24 h. The medium was replaced with cell culture medium containing Calcein AM and propidium iodide for 30 min at 37 °C in the dark. Cells were then observed and photographed by confocal microscopy.

[3] = system: Huh-7 cells; test: Autophagy staining assay (MDC probe); format: cell-based, human; details: Huh-7, 10, 20 or 30 μM, 24 h; especially at doses lower than 30 μM
Protocol: To further evaluate the role of 2H-1,4-benzoxazin-3(4H)-one linked 1,2,3-triazole derivatives in regulating autophagy, Huh-7 cells were treated with different doses (10 μM, 20 μM, or 30 μM) of compounds c5, c14, c16, and c18 for 24 h, and the autophagosome was detected by the MDC (monodansylcadaverine) probe. MDC could specifically label autophagosomes, which will show as green, and we can directly observe them using a fluorescence microscope.
FIGURE 8 Compounds c5, c14, c16, and c18 affected autophagy. Autophagy staining in Huh-7 cells treated with compounds c5, c14, c16, and c18 (10 μM, 20 μM, or 30 μM).
Huh-7 cells were seeded in a 96-well plate at a density of 2 × 10^3 cells/well. Cells were treated with compounds at the doses of 0 μM, 5 μM, 10 μM, 20 μM, or 30 μM. After 24 h of treatment, the medium was removed, and cells were stained with monodansylcadaverine for 1 h in the dark at 37 °C. The cells were photographed with confocal microscopy.

[4] = system: KM mice; test: Acute toxicity test, HE staining of organs; format: in vivo; details: male KM mice, 500 mg/kg via gavage, 14 consecutive days
Protocol: We assessed the safety of compound c18 using an acute toxicity test in KM mice. Male mice were divided into a control group and a c18-treated group, with the latter receiving 500 mg/kg of compound c18 via gavage for 14 consecutive days, while the control group received an equivalent volume of solvent. To evaluate the safety of compound c18, major organs—including the heart, liver, spleen, lungs, and kidneys—were collected from treated KM mice and subjected to hematoxylin and eosin (HE) staining.

| SMILES | H2AX protein expression [1] | LC3 protein expression [1] | PARP protein expression [1] | caspase-3 protein expression [1] | cyclin D protein expression [1] | Dead cells (PI) in live/dead staining [2] | Autophagosomes (MDC probe) [3] | Histopathological changes of heart, liver, spleen, lungs, kidneys (HE staining) [4] |
| --- | --- | --- | --- | --- | --- | --- | --- | --- |
| O=C1COc2cc(NC(=O)c3cccc(-c4cn(Cc5ccc(Br)cc5)nn4)c3)ccc2N1 [compound c5, 3-(1-(4-bromobenzyl)-1H-1,2,3-triazol-4-yl)-N-(3-oxo-3,4-dihydro-2H-benzo[b][1,4]oxazin-7-yl)benzamide] | upregulated | significantly induced | upregulated | upregulated | downregulated | dose-dependent increase | increased |  |
| O=C1COc2cc(NC(=O)c3cccc(-c4cn(Cc5cccc(F)c5)nn4)c3)ccc2N1 [compound c14, 3-(1-(3-fluorobenzyl)-1H-1,2,3-triazol-4-yl)-N-(3-oxo-3,4-dihydro-2H-benzo[b][1,4]oxazin-7-yl)benzamide] | upregulation | upregulation | upregulation |  | downregulation | dose-dependent increase | increased |  |
| O=C1COc2cc(NC(=O)c3cccc(-c4cn(Cc5ccc(C(F)(F)F)cc5)nn4)c3)ccc2N1 [compound c16, N-(3-oxo-3,4-dihydro-2H-benzo[b][1,4]oxazin-7-yl)-3-(1-(4-(trifluoromethyl)benzyl)-1H-1,2,3-triazol-4-yl)benzamide] | upregulation | upregulation | upregulation |  | downregulation | dose-dependent increase | increased |  |
| O=C1COc2cc(NC(=O)c3cccc(-c4cn(Cc5ccc(Cl)cc5)nn4)c3)ccc2N1 [compound c18, 3-(1-(4-chlorobenzyl)-1H-1,2,3-triazol-4-yl)-N-(3-oxo-3,4-dihydro-2H-benzo[b][1,4]oxazin-7-yl)benzamide] | upregulation | upregulation | upregulation |  | downregulation | dose-dependent increase | increased | no significant histopathological changes |
